# According to patent publication US20050054585A1, “Agent controlling the production of osteoclast formation regulator and method of screening substance capable of controlling the production of osteoclast formation regulator” (priority 2001, published 2005):
# What was measured:
# [1] = test system: OPG production in MG-63 cells, ATCC CRL 1427; assay: Screening for control of the production of OPG in MG-63 cells; format: cell-based, human; conditions: saccharide solutions Nos. 1 to 7, 2-day culture
# [2] = test system: OPG production in FHs 74 Int cells, ATCC CCL 241; assay: Production of OPG in FHs 74 Int cell culture supernatant, Western Blotting; format: cell-based, human; conditions: 2-day culture with saccharide (1 mg/ml; α,α-trehalose 1, 0.2, 0.04 mg/ml), control without saccharide = 100
# Procedure: FHs 74 Int cells, ATCC CCL 241, were inoculated to 96-well plates, with D-MEM medium prepared by adding fetal calf serum, commercialized by GIBCO Bethesda Research Laboratories, Bethesda, Md., USA, to the serum-free culture medium shown in Table 1 below to give a final concentration of 10% (v/v), a final cell density of 1.2×10^4 cells/well, and a final volume of 200 μl; and incubated at 37° C. for 48 hours in a 5% CO2 (V/V) incubator. After completion of the culture, the resultant cells were washed thrice (200 μl×3) with the serum-free D-MEM medium in Table 1. […] Two hundred microliters of each of the saccharide solutions of Nos.1 to 7 were placed in each well of the 96-well plates with the cells, and the cells were incubated at 37 C for two days in a 5% CO2 (v/v) incubator. The culture supernatant in each well was sampled and assayed for the production level of OPG by the Western Blotting method as indicated below using a recombinant human OPG commercialized by R & D Systems Inc., MN, USA. In parallel, a cell culture system with no saccharide, as a control group, was provided and cultured, and the supernatant of the cell culture was sampled on day 2 after the initiation of the cell culture and assayed for the production level of OPG similarly as in the test group.
# Fifteen microliters of any of the cell culture supernatants of the test solutions and the control solution, and five microliters of dithiothreitol (DTT) solution for cell treatment were mixed and heated at 99° C. for five minutes. Each of the resulting solutions with heat treatment was developed on SDS-polyacrylamide gel electrophoresis (SDS-PAGE) using multi-gel 4/20 commercialized by Daiichi Pure Chemicals Co., Ltd., Tokyo, Japan; and the gels were transferred to PVDF membranes commercialized by Nihon Millipore Corporation, Tokyo, Japan. The resulting PVDF membranes were blocked with a solution of “BLOCK ACE™”, commercialized by Dainippon Pharmaceutical Co., Ltd., Tokyo, Japan, and contacted with an anti-human OPG antibody as a primary antibody, commercialized by R & D Systems, MN, USA, and an HRP anti-goat IgG antibody, as a secondary antibody, commercialized by Sigma Chemical Co., MO, USA; followed by detecting proteins reacted with these antibodies in accordance with the method described in Experimental Medicine, special edition, titled Handbook for novel recombinant technology, pp. 222-226 (1999). The coloration was effected by using ECL reagent, commercialized by Amersham Pharmacia Biotechnology, IL, USA; exposing “[sequence] ECL™”; and measuring the expression intensity by using “IMAGE MASTER™”, commercialized by Amersham Biosciences, Tokyo, Japan.
# OPG = assay: Administration test in healthy volunteers, blood OPG by ELISA; format: in vivo, human; conditions: for production level of OPG in blood: 100 ml of 10% (w/v) solution orally after fasting, blood at six hours, ELISA
# Procedure: Eighteen healthy volunteers, aged 35 to 50-years-old, were divided into three groups A, B, and C, consisting of three males and three females in each group. […] As a control solution, 1,000 ml of deionized water were sterilized with a membrane filter. These test and control solutions were stored at about 10° C. in a refrigerator until initiating the test. The volunteers in the groups A to C were allowed to fast, except for water, from 10 p.m. at night just before initiating the test, and 100 ml aliquots of the test solution 1, the test solution 2, and the control solution were administered to the groups A, B, and C, respectively, at 6 a.m. on the next day. Thereafter, all the volunteers were allowed to stay indoors calmly and sampled their blood at six hours after the administrations. The sampled bloods were centrifuged at […] for 10 min and quantified for OPG with “RS000805”, a product code number for ELISA system for assaying OPG commercialized by Funakoshi Co., Ltd., Tokyo. Japan.
# ddy mice = conditions: 15 g/kg body weight, by syringe or intubationally with stomach sonde, observed seven days
# Procedure: Either of the sterilized saccharide solutions was administered with a syringe or intubationally administered with a stomach sonde to five groups of ddy mice, having 20 to 25 g body weight, consisting of five heads in each group. The mice were observed their conditions for seven days.
Structure (SMILES),production of OPG compared with a control culture system free of saccharide [1],expression intensity of OPG versus control cell culture system [2],production level of OPG in blood (OPG; healthy volunteers),"complaints of abnormality after administration (OPG; human, in vivo, po)",mortality (ddy mice),"complaints of abnormality after administration (OPG; healthy volunteers, 100 ml of 10% (w/v) solution orally)"
OC[C@H]1O[C@H](O[C@H]2[C@H](O)[C@@H](O)C(O)O[C@@H]2CO)[C@H](O)[C@@H](O)[C@@H]1O (mixture of isomers) [maltose],remarkably inhibited the production of OPG,lower than that for the control cell culture system,,,,
O=C[C@H](O)[C@@H](O)[C@H](O)[C@H](O)CO [D-glucose],remarkably inhibited the production of OPG,lower than that for the control cell culture system,significantly lower production level of OPG than that of the group C with the control solution,no volunteer,no mouse died,
OC[C@H]1O[C@@](CO)(O[C@H]2O[C@H](CO)[C@@H](O)[C@H](O)[C@H]2O)[C@@H](O)[C@@H]1O [sucrose],remarkably inhibited the production of OPG,lower than that for the control cell culture system,,,no mouse died,
"OC[C@H]1O[C@H](O[C@H]2O[C@H](CO)[C@@H](O)[C@H](O)[C@H]2O)[C@H](O)[C@@H](O)[C@@H]1O [α,α-trehalose]",distinctly enhanced the production of OPG,higher than that for the control cell culture system,significantly higher than those with the test solution 2 and the control solution,,no mouse died,no volunteer
